Paper PMC6504579 (Journal of immunology (Baltimore, Md. : 1950), 2019)
Where two headings read alike, the source gives them in different places.

Format: in vitro ADME, human
Conditions: for ATK9 epitope produced (share of degradation products): representative donor; for degradation rate of substrate in CD3/CD28-stimulated vs non-stimulated extracts: paired CD4 T cell cytosolic extracts, 37 °C, pH 7.4, LC-MS/MS; for time of peak production of N-extended TW10 precursors: sampled at 2, 5 and 8 h
[1] = CD3/CD28-stimulated extract, 120 min
[2] = CD3/CD28-stimulated extract, 180 min
[3] = non-stimulated extract, 120 min
[4] = non-stimulated extract, 180 min

Structure (SMILES) | antitopes produced (share of degradation products) [1] [%] | ATK9 epitope produced (share of degradation products) [1] [%] | antitopes produced (share of degradation products) [2] [%] | ATK9 epitope produced (share of degradation products) [2] [%] | antitopes produced (share of degradation products) [3] [%] | ATK9 epitope produced (share of degradation products) [3] [%] | antitopes produced (share of degradation products) [4] [%] | ATK9 epitope produced (share of degradation products) [4] [%] | degradation rate of substrate in CD3/CD28-stimulated vs non-stimulated extracts | time of peak production of N-extended TW10 precursors (activated extracts) [h] | time of peak production of N-extended TW10 precursors (extracts from resting CD4 T cells) [h] | detection of optimal TW10 at 2, 5 and 8 hours (paired resting and activated extracts)
CC[C@H](C)[C@H](NC(=O)[C@H](C)NC(=O)[C@@H]1CCCN1C(=O)[C@H](CO)NC(=O)CNC(=O)[C@H](CCCCN)NC(=O)[C@@H](N)Cc1c[nH]c2ccccc12)C(=O)N[C@@H](Cc1ccccc1)C(=O)N[C@@H](CCC(N)=O)C(=O)N[C@@H](CO)C(=O)N[C@@H](CO)C(=O)N[C@@H](CCSC)C(=O)N[C@H](C(=O)N[C@@H](CCCCN)C(=O)N[C@H](C(=O)N[C@@H](CC(C)C)C(=O)O)[C@@H](C)CC)[C@@H](C)O [5-ATK9–2] | 66.43 | 0.49 | 79.38 | 0.54 | 48.1 | 1.05 | 57.7 | 1.06 | degraded faster | – | – | –
CC[C@H](C)[C@H](NC(=O)[C@H](CCC(N)=O)NC(=O)[C@H](CCC(=O)O)NC(=O)[C@H](CCC(N)=O)NC(=O)[C@H](CC(C)C)NC(=O)[C@@H](NC(=O)[C@H](CO)NC(=O)[C@@H](NC(=O)[C@@H](NC(=O)CNC(=O)[C@H](C)NC(=O)[C@@H](NC(=O)[C@@H](N)CC(=O)O)[C@@H](C)CC)[C@@H](C)O)[C@@H](C)O)[C@@H](C)O)C(=O)NCC(=O)N[C@@H](Cc1c[nH]c2ccccc12)C(=O)N[C@@H](CCSC)C(=O)N[C@H](C(=O)N[C@@H](CC(N)=O)C(=O)O)[C@@H](C)O [5-TW10–3] | – | – | – | – | – | – | – | – | faster degradation rates | 2 | 5 | only in activated extracts
